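Results reflect a 48-hour exposure of cells in 96-well plates to compound at five concentrations. GI50 = concentration required for 50% inhibition of growth.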 The source made the active and inactive calls. Rule as the data show it: active = GI50 up to about 1.1 µM and inactive = higher.
Key:
Experiment in all cases: NCI-60 cell line screen, 48 h
Hs-578T = tested on: Hs-578T
M14 = tested on: M14
SK-MEL-5 = tested on: SK-MEL-5
DU-145 = tested on: DU-145
SK-MEL-2 = tested on: SK-MEL-2
CAKI-1 = tested on: CAKI-1
CCRF-CEM = tested on: CCRF-CEM
COLO 205 = tested on: COLO 205
SK-OV-3 = tested on: SK-OV-3
IGROV-1 = tested on: IGROV-1
PC-3 = tested on: PC-3
RPMI-8226 = tested on: RPMI-8226
MCF7 = tested on: MCF7
HCT-15 = tested on: HCT-15
OVCAR-5 = tested on: OVCAR-5
SNB-19 = tested on: SNB-19
OVCAR-4 = tested on: OVCAR-4
SR = tested on: SR
786-0 = tested on: 786-0
HT-29 = tested on: HT-29
A498 = tested on: A498
UO-31 = tested on: UO-31
NCI-H522 = tested on: NCI-H522
SNB-75 = tested on: SNB-75
NCI/ADR-RES = tested on: NCI/ADR-RES
HCT-116 = tested on: HCT-116
HL-60 = tested on: HL-60
MDA-MB-435 = tested on: MDA-MB-435
MDA-MB-231 = tested on: MDA-MB-231
SW-620 = tested on: SW-620
LOX IMVI = tested on: LOX IMVI
SF-268 = tested on: SF-268
SN12C = tested on: SN12C
MOLT-4 = tested on: MOLT-4
KM12 = tested on: KM12
EKVX = tested on: EKVX
OVCAR-3 = tested on: OVCAR-3
UACC-257 = tested on: UACC-257
NCI-H460 = tested on: NCI-H460
NCI-H226 = tested on: NCI-H226
HOP-92 = tested on: HOP-92
TK-10 = tested on: TK-10
SF-295 = tested on: SF-295
A549 = tested on: A549
NCI-H23 = tested on: NCI-H23
BT-549 = tested on: BT-549
MDA-N = tested on: MDA-N
ACHN = tested on: ACHN
UACC-62 = tested on: UACC-62
RXF 393 = tested on: RXF 393
U-251 = tested on: U-251
SF-539 = tested on: SF-539
OVCAR-8 = tested on: OVCAR-8
T47D = tested on: T47D
HCC 2998 = tested on: HCC 2998
K562 = tested on: K562
SK-MEL-28 = tested on: SK-MEL-28
HOP-62 = tested on: HOP-62
Malme-3M = tested on: Malme-3M

Measured: GI50

COc1ccc(N)c(C(O)CCNC(C)=O)c1 (stereo unspecified)
inactive: Hs-578T > 100 µM | M14 > 100 µM | SK-MEL-5 > 100 µM | DU-145 > 100 µM | SK-MEL-2 > 100 µM | CAKI-1 > 100 µM | CCRF-CEM > 100 µM | COLO 205 > 100 µM | SK-OV-3 > 100 µM | IGROV-1 > 100 µM | PC-3 > 100 µM | RPMI-8226 > 100 µM | MCF7 > 100 µM | OVCAR-5 > 100 µM | SNB-19 > 100 µM | OVCAR-4 > 100 µM | SR > 100 µM | 786-0 > 100 µM | HT-29 > 100 µM | A498 > 100 µM | UO-31 > 100 µM | NCI-H522 > 100 µM | SNB-75 > 100 µM | NCI/ADR-RES > 100 µM | HCT-116 > 100 µM | HL-60 > 100 µM | MDA-MB-435 > 100 µM | MDA-MB-231 > 100 µM | SW-620 > 100 µM | LOX IMVI > 100 µM | SF-268 > 100 µM | SN12C > 100 µM | MOLT-4 > 100 µM | KM12 > 100 µM | EKVX > 100 µM | OVCAR-3 > 100 µM | UACC-257 > 100 µM | NCI-H460 > 100 µM | NCI-H226 > 100 µM | HOP-92 > 100 µM | TK-10 > 100 µM | SF-295 > 100 µM | A549 > 100 µM | NCI-H23 > 100 µM | BT-549 > 100 µM | MDA-N > 100 µM | ACHN > 100 µM | UACC-62 > 100 µM | RXF 393 > 100 µM | U-251 > 100 µM | SF-539 > 100 µM | OVCAR-8 > 100 µM | T47D > 100 µM
> 100 µM: HCT-15

CC1(C=O)CC(CCc2ccccc2)NC1Cc1ccc(O)cc1 (stereo unspecified)
21.3 µM: HCT-15
inactive: Hs-578T 19.5 µM | M14 15.6 µM | HCC 2998 11.6 µM | SK-MEL-5 15.6 µM | DU-145 17.5 µM | SK-MEL-2 14.8 µM | CAKI-1 14.8 µM | CCRF-CEM 20.2 µM | COLO 205 10.6 µM | SK-OV-3 17.4 µM | IGROV-1 14 µM | PC-3 13.8 µM | RPMI-8226 16.2 µM | MCF7 14.1 µM | K562 16.7 µM | OVCAR-5 17.4 µM | SNB-19 14.5 µM | OVCAR-4 14.2 µM | SR 12 µM | SK-MEL-28 22.1 µM | 786-0 15.2 µM | HT-29 14.9 µM | A498 14.6 µM | UO-31 14.5 µM | NCI-H522 19.4 µM | SNB-75 14.7 µM | NCI/ADR-RES 18.8 µM | HCT-116 15.6 µM | HL-60 12.6 µM | MDA-MB-435 17.4 µM | MDA-MB-231 13.6 µM | SW-620 23.3 µM | LOX IMVI 17 µM | SF-268 16.6 µM | SN12C 16.9 µM | MOLT-4 14.1 µM | HOP-62 18.6 µM | KM12 18.2 µM | EKVX 15.2 µM | OVCAR-3 17 µM | UACC-257 15.1 µM | NCI-H460 16.6 µM | NCI-H226 15.5 µM | HOP-92 15.3 µM | TK-10 17.3 µM | SF-295 17.7 µM | A549 15.4 µM | NCI-H23 23 µM | BT-549 22.9 µM | MDA-N 17.4 µM | ACHN 15.3 µM | UACC-62 16.6 µM | RXF 393 15.7 µM | U-251 13.7 µM | SF-539 15.3 µM | OVCAR-8 21 µM | T47D 15.8 µM

CCCCN1CSC(=S)N(Cc2ccccc2)C1
58.2 µM: HCT-15
inactive: Hs-578T > 70.3 µM | M14 > 82.8 µM | SK-MEL-5 23.4 µM | DU-145 69.3 µM | SK-MEL-2 > 59.3 µM | CAKI-1 > 100 µM | CCRF-CEM 4.47 µM | COLO 205 23.2 µM | SK-OV-3 > 100 µM | IGROV-1 82.2 µM | PC-3 63.5 µM | RPMI-8226 24.9 µM | MCF7 31.3 µM | K562 31.8 µM | OVCAR-5 > 100 µM | SNB-19 66.4 µM | OVCAR-4 56.8 µM | SR 31.7 µM | SK-MEL-28 > 100 µM | 786-0 34.4 µM | HT-29 58.6 µM | A498 > 62.1 µM | UO-31 > 100 µM | NCI-H522 23.9 µM | SNB-75 33.7 µM | Malme-3M 36.8 µM | NCI/ADR-RES 54.3 µM | HCT-116 35.4 µM | HL-60 3.56 µM | MDA-MB-435 38.2 µM | MDA-MB-231 > 100 µM | SW-620 37.8 µM | LOX IMVI 36.9 µM | SF-268 49.7 µM | SN12C > 71 µM | MOLT-4 25.6 µM | HOP-62 > 100 µM | KM12 31.1 µM | EKVX 30 µM | OVCAR-3 33.7 µM | UACC-257 20.9 µM | NCI-H460 31.9 µM | NCI-H226 > 68.5 µM | HOP-92 > 75.9 µM | TK-10 28.4 µM | SF-295 48.1 µM | A549 48 µM | NCI-H23 42.6 µM | BT-549 > 84.9 µM | MDA-N 37.6 µM | ACHN > 100 µM | UACC-62 41.2 µM | RXF 393 48 µM | U-251 44.6 µM | SF-539 > 100 µM | OVCAR-8 66.4 µM | T47D 34.8 µM

CCCCCCCCCCCCCCCCCCNc1ccn(C2OC(COP(=O)(O)OCC3OC(n4cc(F)c(=O)[nH]c4=O)CC3O)C(O)C2O)c(=O)n1 (stereo unspecified)
16.3 µM: HCT-15
inactive: Hs-578T 17.8 µM | M14 3.31 µM | SK-MEL-5 23.1 µM | DU-145 2.43 µM | SK-MEL-2 51.9 µM | CAKI-1 1.16 µM | CCRF-CEM 1.24 µM | COLO 205 16.1 µM | SK-OV-3 27.5 µM | IGROV-1 10.1 µM | PC-3 1.53 µM | RPMI-8226 1.44 µM | K562 12.1 µM | OVCAR-5 15 µM | SNB-19 20.2 µM | OVCAR-4 60 µM | SK-MEL-28 > 100 µM | 786-0 2.19 µM | HT-29 5.38 µM | A498 33.3 µM | NCI-H522 4.83 µM | SNB-75 1.18 µM | NCI/ADR-RES 1.33 µM | HCT-116 2.98 µM | MDA-MB-435 37.9 µM | MDA-MB-231 > 100 µM | SW-620 42.8 µM | LOX IMVI 1.36 µM | SN12C 3.29 µM | MOLT-4 1.63 µM | KM12 15.5 µM | EKVX 14.5 µM | OVCAR-3 7.67 µM | UACC-257 > 89.7 µM | NCI-H460 3.53 µM | HOP-92 > 100 µM | TK-10 14.7 µM | NCI-H23 1.48 µM | BT-549 11.7 µM | MDA-N 46.6 µM | UACC-62 1.19 µM | RXF 393 12.6 µM | U-251 6.28 µM | OVCAR-8 1.36 µM | T47D 27.9 µM
active: HCC 2998 < 0.01 µM | MCF7 0.274 µM | SR 0.337 µM | UO-31 0.498 µM | Malme-3M 0.634 µM | HL-60 0.678 µM | SF-268 0.0914 µM | HOP-62 0.356 µM | SF-295 0.47 µM | A549 0.251 µM | ACHN 0.778 µM | SF-539 0.207 µM

Nc1ccc2c(c1)NC(=O)[C@@H]1CCCN1C2=O
> 100 µM: HCT-15
inactive: Hs-578T > 100 µM | M14 > 100 µM | HCC 2998 > 100 µM | SK-MEL-5 > 100 µM | DU-145 > 100 µM | SK-MEL-2 > 100 µM | CAKI-1 > 100 µM | CCRF-CEM > 100 µM | COLO 205 > 100 µM | SK-OV-3 > 100 µM | IGROV-1 > 100 µM | PC-3 > 100 µM | RPMI-8226 > 100 µM | MCF7 > 100 µM | K562 > 100 µM | OVCAR-5 > 100 µM | SNB-19 > 100 µM | OVCAR-4 > 100 µM | SR > 100 µM | SK-MEL-28 > 100 µM | 786-0 > 100 µM | HT-29 > 100 µM | A498 > 100 µM | UO-31 > 100 µM | NCI-H522 > 100 µM | SNB-75 > 100 µM | NCI/ADR-RES > 100 µM | HCT-116 > 100 µM | HL-60 > 100 µM | MDA-MB-435 > 100 µM | MDA-MB-231 > 100 µM | SW-620 > 100 µM | LOX IMVI > 100 µM | SF-268 > 100 µM | SN12C > 100 µM | MOLT-4 > 100 µM | HOP-62 > 100 µM | KM12 > 100 µM | EKVX > 100 µM | OVCAR-3 > 100 µM | UACC-257 > 100 µM | NCI-H460 > 100 µM | NCI-H226 > 100 µM | HOP-92 > 100 µM | TK-10 > 100 µM | SF-295 > 100 µM | A549 > 100 µM | NCI-H23 > 100 µM | BT-549 > 100 µM | MDA-N > 100 µM | ACHN > 100 µM | UACC-62 > 100 µM | RXF 393 > 100 µM | U-251 > 100 µM | SF-539 > 100 µM | OVCAR-8 > 100 µM | T47D 96.6 µM
